Values of other authors, collected in patent publication US8476249B2, “Method of treating thrombocytopenia” (GlaxoSmithKline LLC, priority 2010, dated 2013).

How the values were obtained:
[1] = specifically in the portal vein system
[2] = in vivo

Molecule | thrombotic events [1] | occurrence of portal vein thrombosis [2]
CC1=NN(c2ccc(C)c(C)c2)C(=O)/C1=N\Nc1cccc(-c2cccc(C(=O)O)c2)c1O.NCCO.NCCO [eltrombopag, 3′-[(2Z)-[1-(3,4-dimethylphenyl)-1,5-dihydro-3-methyl-5-oxo-4H-pyrazol-4-ylidene]hydrazino]-2′-hydroxy-[1,1′-biphenyl]-3-carboxylic acid bis-(monoethanolamine)] | associated with thrombotic events | 
enoxaparin |  | reducing the occurrence of portal vein thrombosis
